Source: publication PMC9014410, “Discovery of V-0219: A Small-Molecule Positive Allosteric Modulator of the Glucagon-Like Peptide-1 Receptor toward Oral Treatment for “Diabesity”” (Journal of Medicinal Chemistry, 2022)
Where “and” joins values, the source holds several entries; their conditions need not be identical. Equal entries are not always repeated. Entries after “also recorded” stand apart in the source; their conditions may differ.

Assays:
[1] = tested on: EndoC-βH1 cells; test: Insulin secretion by human pancreatic EndoC-βH1 cells; assay type: cell-based; conditions: high glucose concentration
Experimental: Both cell lines were cultured in RPMI 1640 medium supplemented with 10% fetal calf serum as described. Cell monolayers were incubated at 37 °C in a 7.5% CO2 atmosphere. For insulin secretion studies, cells were detached, washed once with glucose-free medium and placed in 48 multiwell plates (100,000 cells per well) and kept in glucose-free medium for 1.5 h prior to incubation with drugs. The incubation was done using two types of culture media, defined as low glucose (0.5–3 mM) and high glucose (15 mM). […] Incubation with compounds lasted 30 min, and then the media was collected, centrifuged at 4 °C for 2 min until assayed for insulin using commercial ELISA kit.

[2] = tested on: wild-type C57BL/6N mice; test: Glucose tolerance test in wild-type mice; assay type: in vivo, mouse
Experimental: (§1) Glucose tolerance test was carried out both in Wistar and Zucker (fa/fa) obese male rats and in wild-type and GLP-1R KO mice, by injecting an ip glucose load of 2 g/kg body weight (diluted in saline) or by oral administration of a glucose solution (2 g/kg in a volume of water of […] body weight). Animals were food-deprived overnight (12 h fasting) before testing. Thirty minutes before glucose load, animals received by ip administration the compound being tested dissolved in saline/DMSO (0.2%) as vehicle. Tail blood samples were collected before (0 min) and 5, 10, 15, 30, 45, 60, and 120 min after glucose administration. Glucose was determined using a commercial glucometer (Accu-check, Roche Diagnostic).

[3] = tested on: GLP-1R KO mice; test: Glucose tolerance test in GLP-1R KO mice; assay type: in vivo, mouse; conditions: (S)-9; 2 g/kg glucose
Experimental: as §1

[4] = tested on: Zucker (fa/fa) obese male rats; test: Glucose tolerance test in diabetic fatty Zucker rats; assay type: in vivo, rat; conditions: (S)-9 0.4 mg/kg intragastrically; ip 2 g/kg glucose
[5] = tested on: Wistar rats; test: Glucose tolerance test in Wistar rats; assay type: in vivo, rat; conditions: (S)-9 0.04 and 0.2 mg/kg ip; ip 2 g/kg glucose
Experimental: as §1

[6] = tested on: male Wistar rats; test: Feeding inhibition in 12-h fasted male Wistar rats (icv)
[7] = tested on: INS-1 β-cells; test: Insulin secretion by rat INS-1 / INS-1E insulinoma cells; assay type: cell-based; conditions: INS-1E cells, 0.5 mM glucose, single representative experiment
Experimental: The incubation was done using two types of culture media, defined as low glucose (0.5–3 mM) and high glucose (15 mM). […] Incubation with compounds lasted 30 min, and then the media was collected, centrifuged at 4 °C for 2 min until assayed for insulin using commercial ELISA kit.

[8] = molecular target: hGLP-1R (Homo sapiens, UniProt P43220); test: Calcium mobilization / calcium fluxes in HEK cells stably expressing hGLP-1R (ExviTech flow cytometry); conditions: 10 μM compound, then EC25 of GLP-1
[9] = Microsomal stability test as summarised in the text (species not given in the sentence); assay type: in vitro ADME; conditions: rat, dog, human, liver microsomes; text summary of Table S6; read-out: half-life time in a microsomal stability test
[10] = molecular target: CYP2C9 (Homo sapiens, UniProt P11712); test: P450 cytochrome inhibition, CYP2C9; assay type: in vitro ADME
Experimental: Inhibition of P450 cytochrome isoforms. […] Effect on hERG channel. […] Patch clamp experiments were carried out using […]® robot. […] After S27

[11] = tested on: panel of 54 GPCRs; test: Selectivity panel of binding assays (Eurofins Cerep); conditions: 10 μM; all 54 receptors
From the text: (§2) 3. Binding to off-target receptors
(§3) Eurofins Cerep (France). Significant binding affinity was defined as a displacement of target
selective radioligand greater than 50% using a concentration of 10 µM of 9. […]

[12] = tested on: male Wistar rats; test: Anxiety-like behavior in the elevated plus-maze; assay type: in vivo, rat; conditions: 9 1 and 0.5 mg/kg ip
Experimental: Animals naïve to the maze were manipulated for 7 days before testing. The day of the experiment, 30 min after ip injection of 9, animals were placed in the center of the maze, facing an open arm. The number of entries and the % of time spent in the exposed arms of the maze were measured. Test length was 5 min and animals were not retested.

[13] = molecular target: hERG channel (Homo sapiens, UniProt Q12809); test: hERG channel inhibition, whole cell patch clamp in hERG-transfected CHO cells
Experimental: (tail) current was investigated using Chinese Hamster Ovary (CHO) cells stably transfected with
hERG, employing the whole cell patch clamp technique.
hERG inhibition. Patch clamp experiments were carried out using FlyscreenP® robot. CHO cells
choline chloride, 5 mM KCl, 1 mM MgCl2(H2O)6, 10 mM HEPES, 10 mM glucose, pH 7.4) to give
cell density of ~ 0.5 million per mL, and transferred to the cell mixer on Flyscreen® 8500 robot
which keeps cell suspension in a ready-for-use condition.
KMeSO3, 5 mM MgCl2(H2O)6, 10 mM HEPES-KOH, 5 mM EGTA, 5 mM K2ATP at pH 7.2. Ionic
currents from hERG transfected cells were measured in the whole cell configuration. Once the whole
the hERG current. An EC NaCl solution (120 mM NaCl, 5 mM KCl, 1.8 mM CaCl2, 10 mM
HEPES, 10 mM glucose, pH 7.4) was added for control readings, which were measured for ~ 360 s
followed by compound addition.
continuously for ~ 600 seconds. For analysis purposes, the current of interest (IKr) was considered.
Results were expressed as absolute values and percent change from control. Percent inhibition was
calculated by comparing the IKr current before and after addition of test compound once a steady-
state current had been attained.

[14] = molecular target: T1, H1 (h) (Homo sapiens, UniProt P35367); test: biochemical; design: radioligand displacement binding panel (Eurofins Cerep), % inhibition of control specific binding; conditions: antagonist radioligand; read-out: % Inhibition of Control Specific Binding
T1 construct: gene HRH1
From the text: as §2, §3
(§4) selective radioligand greater than 50% using a concentration of 10 µM of 9.

[15] = molecular target: T2, A1 (h) (Homo sapiens, UniProt P30542); test: biochemical; design: radioligand displacement binding panel (Eurofins Cerep), % inhibition of control specific binding; conditions: antagonist radioligand; read-out: % Inhibition of Control Specific Binding
T2 construct: gene ADORA1
From the text: as §2, §3, §4

[16] = molecular target: T3, MT1 (ML1A) (h) (Homo sapiens, UniProt P48039); test: biochemical; design: radioligand displacement binding panel (Eurofins Cerep), % inhibition of control specific binding; conditions: agonist radioligand; read-out: % Inhibition of Control Specific Binding
T3 construct: gene MTNR1A
From the text: as §2, §3, §4

[17] = molecular target: T4, β1 (h) (Homo sapiens, UniProt P08588); test: biochemical; design: radioligand displacement binding panel (Eurofins Cerep), % inhibition of control specific binding; conditions: agonist radioligand; read-out: % Inhibition of Control Specific Binding
T4 construct: gene ADRB1
From the text: as §2, §3, §4

[18] = molecular target: T5, A2A (h) (Homo sapiens, UniProt P29274); test: biochemical; design: radioligand displacement binding panel (Eurofins Cerep), % inhibition of control specific binding; conditions: agonist radioligand; read-out: % Inhibition of Control Specific Binding
T5 construct: gene ADORA2A
From the text: as §2, §3, §4

[19] = molecular target: CCR1 (h) (Homo sapiens, UniProt P32246); test: biochemical; design: radioligand displacement binding panel (Eurofins Cerep), % inhibition of control specific binding; conditions: agonist radioligand; read-out: % Inhibition of Control Specific Binding
From the text: as §2, §3, §4

[20] = molecular target: T6, A3 (h) (Homo sapiens, UniProt P0DMS8); test: biochemical; design: radioligand displacement binding panel (Eurofins Cerep), % inhibition of control specific binding; conditions: agonist radioligand; read-out: % Inhibition of Control Specific Binding
T6 construct: gene ADORA3
From the text: as §2, §3, §4

[21] = molecular target: T7, H2 (h) (Homo sapiens, UniProt P25021); test: biochemical; design: radioligand displacement binding panel (Eurofins Cerep), % inhibition of control specific binding; conditions: antagonist radioligand; read-out: % Inhibition of Control Specific Binding
T7 construct: gene HRH2
From the text: as §2, §3, §4

[22] = molecular target: T8, GAL2 (h) (Homo sapiens, UniProt O43603); test: biochemical; design: radioligand displacement binding panel (Eurofins Cerep), % inhibition of control specific binding; conditions: agonist radioligand; read-out: % Inhibition of Control Specific Binding
T8 construct: gene GALR2
From the text: as §2, §3, §4

[23] = molecular target: T9, B2 (h) (Homo sapiens, UniProt P30411); test: biochemical; design: radioligand displacement binding panel (Eurofins Cerep), % inhibition of control specific binding; conditions: agonist radioligand; read-out: % Inhibition of Control Specific Binding
T9 construct: gene BDKRB2
From the text: as §2, §3, §4

[24] = molecular target: T10, NK2 (h) (Homo sapiens, UniProt P21452); test: biochemical; design: radioligand displacement binding panel (Eurofins Cerep), % inhibition of control specific binding; conditions: agonist radioligand; read-out: % Inhibition of Control Specific Binding
T10 construct: gene TACR2
From the text: as §2, §3, §4

[25] = molecular target: T11, NK3 (h) (Homo sapiens, UniProt P29371); test: biochemical; design: radioligand displacement binding panel (Eurofins Cerep), % inhibition of control specific binding; conditions: antagonist radioligand; read-out: % Inhibition of Control Specific Binding
T11 construct: gene TACR3
From the text: as §2, §3, §4

[26] = In vivo pharmacokinetic study in male Sprague Dawley rats; conditions: rat, plasma

hERG channel, sequence (Q12809 whole entry): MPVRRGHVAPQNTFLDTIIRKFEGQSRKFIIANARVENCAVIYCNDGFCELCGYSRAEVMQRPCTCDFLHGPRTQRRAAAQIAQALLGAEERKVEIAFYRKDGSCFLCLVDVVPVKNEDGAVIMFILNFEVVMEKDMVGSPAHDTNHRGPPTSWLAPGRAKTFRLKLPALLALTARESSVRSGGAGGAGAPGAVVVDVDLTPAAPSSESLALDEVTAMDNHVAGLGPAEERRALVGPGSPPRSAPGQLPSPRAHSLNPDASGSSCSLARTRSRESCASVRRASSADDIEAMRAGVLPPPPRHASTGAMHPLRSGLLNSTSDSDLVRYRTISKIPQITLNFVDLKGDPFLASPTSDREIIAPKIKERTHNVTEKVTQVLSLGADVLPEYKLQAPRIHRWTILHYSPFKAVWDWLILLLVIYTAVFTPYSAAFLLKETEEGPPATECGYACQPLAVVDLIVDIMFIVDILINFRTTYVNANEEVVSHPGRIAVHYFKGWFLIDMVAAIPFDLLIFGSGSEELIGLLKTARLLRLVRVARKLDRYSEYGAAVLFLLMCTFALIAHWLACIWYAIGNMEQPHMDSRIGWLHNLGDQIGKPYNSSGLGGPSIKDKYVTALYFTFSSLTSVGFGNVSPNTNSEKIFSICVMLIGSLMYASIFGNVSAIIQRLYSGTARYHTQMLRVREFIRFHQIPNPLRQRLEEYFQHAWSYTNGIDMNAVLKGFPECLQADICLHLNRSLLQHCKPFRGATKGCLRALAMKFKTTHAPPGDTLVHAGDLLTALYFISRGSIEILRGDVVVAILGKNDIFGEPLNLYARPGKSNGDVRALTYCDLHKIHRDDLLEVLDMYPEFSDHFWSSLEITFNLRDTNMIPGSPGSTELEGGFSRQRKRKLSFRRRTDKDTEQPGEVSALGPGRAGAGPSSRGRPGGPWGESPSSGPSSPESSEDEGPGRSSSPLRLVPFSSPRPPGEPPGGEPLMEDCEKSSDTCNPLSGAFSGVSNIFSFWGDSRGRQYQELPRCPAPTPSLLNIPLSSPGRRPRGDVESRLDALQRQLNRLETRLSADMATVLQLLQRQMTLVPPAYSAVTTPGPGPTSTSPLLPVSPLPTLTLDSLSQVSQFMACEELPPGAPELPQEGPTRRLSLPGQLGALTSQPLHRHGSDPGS
CYP2C9, sequence (P11712 whole entry, canonical isoform): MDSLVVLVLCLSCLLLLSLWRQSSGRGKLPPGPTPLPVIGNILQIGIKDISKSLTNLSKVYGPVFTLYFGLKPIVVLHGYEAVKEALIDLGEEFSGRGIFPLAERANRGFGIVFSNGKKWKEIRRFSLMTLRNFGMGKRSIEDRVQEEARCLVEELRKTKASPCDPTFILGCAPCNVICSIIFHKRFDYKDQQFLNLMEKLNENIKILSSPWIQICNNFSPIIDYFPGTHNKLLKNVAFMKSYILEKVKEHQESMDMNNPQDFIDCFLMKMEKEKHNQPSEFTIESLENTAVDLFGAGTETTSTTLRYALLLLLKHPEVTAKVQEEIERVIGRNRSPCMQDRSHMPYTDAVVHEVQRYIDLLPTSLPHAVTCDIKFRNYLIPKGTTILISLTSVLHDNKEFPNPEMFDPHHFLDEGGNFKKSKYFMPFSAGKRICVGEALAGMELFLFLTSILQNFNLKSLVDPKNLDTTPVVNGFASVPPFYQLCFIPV
T3 sequence (P48039 whole entry): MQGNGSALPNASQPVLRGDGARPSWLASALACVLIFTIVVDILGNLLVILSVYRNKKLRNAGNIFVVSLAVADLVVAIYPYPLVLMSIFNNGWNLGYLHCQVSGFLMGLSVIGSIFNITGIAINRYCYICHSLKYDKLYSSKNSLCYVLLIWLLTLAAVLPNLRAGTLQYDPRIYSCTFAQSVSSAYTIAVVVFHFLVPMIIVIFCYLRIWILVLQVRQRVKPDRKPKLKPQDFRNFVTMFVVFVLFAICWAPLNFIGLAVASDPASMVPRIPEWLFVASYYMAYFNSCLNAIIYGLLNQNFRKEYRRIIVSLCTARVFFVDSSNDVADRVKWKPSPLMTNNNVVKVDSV
T1 sequence (P35367 whole entry): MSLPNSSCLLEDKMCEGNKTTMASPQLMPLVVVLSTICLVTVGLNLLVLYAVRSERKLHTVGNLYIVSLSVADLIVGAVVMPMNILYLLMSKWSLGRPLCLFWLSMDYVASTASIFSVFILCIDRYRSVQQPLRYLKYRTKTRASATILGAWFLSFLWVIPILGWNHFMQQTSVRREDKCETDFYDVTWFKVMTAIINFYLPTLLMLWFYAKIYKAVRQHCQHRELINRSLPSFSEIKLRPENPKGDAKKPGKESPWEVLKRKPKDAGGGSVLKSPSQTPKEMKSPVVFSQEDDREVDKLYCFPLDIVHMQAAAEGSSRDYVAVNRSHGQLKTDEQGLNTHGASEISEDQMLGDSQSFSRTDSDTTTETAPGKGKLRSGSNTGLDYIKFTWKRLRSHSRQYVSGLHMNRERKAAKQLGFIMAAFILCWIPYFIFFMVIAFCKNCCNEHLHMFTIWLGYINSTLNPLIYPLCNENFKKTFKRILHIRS
T2 sequence (P30542 whole entry): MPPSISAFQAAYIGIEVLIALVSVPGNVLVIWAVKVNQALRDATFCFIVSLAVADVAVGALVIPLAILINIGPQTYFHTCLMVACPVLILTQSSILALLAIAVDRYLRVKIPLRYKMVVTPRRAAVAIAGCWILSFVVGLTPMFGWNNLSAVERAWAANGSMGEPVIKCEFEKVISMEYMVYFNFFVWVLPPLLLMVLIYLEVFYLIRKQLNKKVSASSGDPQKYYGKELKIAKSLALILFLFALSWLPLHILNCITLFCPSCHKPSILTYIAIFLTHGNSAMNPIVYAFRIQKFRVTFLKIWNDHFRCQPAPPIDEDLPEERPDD
T7 sequence (P25021 whole entry): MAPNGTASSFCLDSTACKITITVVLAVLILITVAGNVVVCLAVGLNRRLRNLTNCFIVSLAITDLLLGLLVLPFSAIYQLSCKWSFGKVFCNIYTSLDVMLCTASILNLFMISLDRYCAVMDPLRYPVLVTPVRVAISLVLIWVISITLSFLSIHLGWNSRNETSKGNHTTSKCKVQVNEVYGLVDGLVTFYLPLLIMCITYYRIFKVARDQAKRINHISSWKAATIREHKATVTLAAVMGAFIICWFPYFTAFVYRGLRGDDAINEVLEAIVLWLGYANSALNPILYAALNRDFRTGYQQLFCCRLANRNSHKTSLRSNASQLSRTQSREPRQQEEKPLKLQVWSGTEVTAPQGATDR
T6 sequence (P0DMS8 whole entry): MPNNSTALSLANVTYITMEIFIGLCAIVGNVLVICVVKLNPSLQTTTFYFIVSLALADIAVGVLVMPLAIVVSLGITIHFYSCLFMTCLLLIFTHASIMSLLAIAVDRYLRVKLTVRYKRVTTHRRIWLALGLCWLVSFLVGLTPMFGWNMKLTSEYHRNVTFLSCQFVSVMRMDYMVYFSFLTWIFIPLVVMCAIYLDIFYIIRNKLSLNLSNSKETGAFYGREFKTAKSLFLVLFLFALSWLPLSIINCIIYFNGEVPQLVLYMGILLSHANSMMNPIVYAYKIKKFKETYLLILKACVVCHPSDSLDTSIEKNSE
T9 sequence (P30411 whole entry): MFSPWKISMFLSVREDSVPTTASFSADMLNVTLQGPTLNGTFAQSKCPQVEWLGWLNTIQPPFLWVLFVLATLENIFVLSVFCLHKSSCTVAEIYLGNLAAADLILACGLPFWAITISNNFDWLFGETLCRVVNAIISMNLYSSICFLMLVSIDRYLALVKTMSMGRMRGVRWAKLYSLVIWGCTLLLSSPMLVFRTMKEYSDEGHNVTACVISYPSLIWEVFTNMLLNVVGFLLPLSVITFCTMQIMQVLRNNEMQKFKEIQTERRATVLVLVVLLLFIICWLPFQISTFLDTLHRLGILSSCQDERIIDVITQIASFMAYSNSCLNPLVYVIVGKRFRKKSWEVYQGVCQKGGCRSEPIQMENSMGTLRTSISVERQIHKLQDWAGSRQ
T4 sequence (P08588 whole entry): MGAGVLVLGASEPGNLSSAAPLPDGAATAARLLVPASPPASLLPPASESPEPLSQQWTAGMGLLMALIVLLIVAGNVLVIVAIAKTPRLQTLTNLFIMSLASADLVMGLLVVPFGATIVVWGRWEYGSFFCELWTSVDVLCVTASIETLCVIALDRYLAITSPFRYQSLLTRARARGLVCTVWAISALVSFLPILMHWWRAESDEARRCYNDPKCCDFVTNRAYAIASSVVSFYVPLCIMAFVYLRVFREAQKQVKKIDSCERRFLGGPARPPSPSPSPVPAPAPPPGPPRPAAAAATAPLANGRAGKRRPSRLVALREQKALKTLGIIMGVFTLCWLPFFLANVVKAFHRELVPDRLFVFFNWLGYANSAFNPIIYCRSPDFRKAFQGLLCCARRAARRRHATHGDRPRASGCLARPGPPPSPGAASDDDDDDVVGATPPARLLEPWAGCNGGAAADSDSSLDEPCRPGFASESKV
T11 sequence (P29371 whole entry): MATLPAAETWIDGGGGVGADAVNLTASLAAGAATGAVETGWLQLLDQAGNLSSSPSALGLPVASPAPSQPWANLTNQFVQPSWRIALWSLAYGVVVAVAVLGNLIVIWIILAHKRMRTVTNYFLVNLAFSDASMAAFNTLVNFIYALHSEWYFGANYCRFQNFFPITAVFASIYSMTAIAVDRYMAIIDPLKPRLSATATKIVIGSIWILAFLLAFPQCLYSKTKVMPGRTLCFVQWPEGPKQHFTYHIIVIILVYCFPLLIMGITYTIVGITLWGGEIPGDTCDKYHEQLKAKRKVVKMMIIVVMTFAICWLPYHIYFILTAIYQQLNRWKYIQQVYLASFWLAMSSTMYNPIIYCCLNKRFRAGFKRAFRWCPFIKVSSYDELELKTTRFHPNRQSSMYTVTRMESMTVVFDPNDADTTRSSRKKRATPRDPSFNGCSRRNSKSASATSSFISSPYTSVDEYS

In the case of `FC(F)(F)c1ccc(-c2noc(CN3CCC[C@@H](CN4CCOCC4)C3)n2)cc1` [(S)-9, (+)-4-{[(3S)-1-({3-[4-(Trifluoromethyl)phenyl]-1,2,4-oxadiazol-5-yl}methyl)piperidin-3-yl]methyl}morpholine], the “potentiation of insulin secretion stimulated by GLP-1 (in words)” value [1] is reported as “similarly potentiate insulin secretion stimulated by GLP-1”, the “glucose handling after glucose load” value ([2]; (S)-9, 2 g/kg glucose, 12-h fasted) is reported as “improvement” and the “glucose handling after glucose load” value [3] is reported as “devoid; also recorded: inactive”. For the same compound, the “glucose handling after glucose load, oral dosing” value [4] was “orally active”, the “glucose handling after glucose load” value [5] was “clearly improved glucose handling” and the “duration of the feeding effect after injection” value ([6]; (S)-9 5 μg/kg icv) was “up to 2 h”. For the same compound, the effect on feeding ([6]; (S)-9 5 μg/kg icv) was “decreased feeding”, the “Insulin secreted” value ([7]; 0.1 nM test substance) was 29 ng/mL and the “Insulin secreted” value ([7]; 1 nM test substance) was 39 ng/mL. For the same compound, the “Insulin secreted” value ([7]; 10 nM test substance) was 37 ng/mL.
With `O=S(=O)(NC1CCN(Cc2nc(-c3ccc(C(F)(F)F)cc3)no2)CC1)c1ccccc1Cl` [compound 1] the “result of ExviTech library screening” value [8] was “putative modulator of the GLP-1R”.
For `FC(F)(F)c1ccc(-c2noc(CN3CCCC(CN4CCOCC4)C3)n2)cc1` (stereo not shown) [compound 9, 4-{[1-({3-[4-(Trifluoromethyl)phenyl]-1,2,4-oxadiazol-5-yl}methyl)piperidin-3-yl]methyl}morpholine], the half-life at 1 µM [9] was greater than 30 min, the “glucose handling after ip glucose load” value ([2]; 9 0.1 mg/kg ip, ip 2 g/kg glucose, 0.1 mg/kg) was “improved glucose handling” and the “glucose handling after oral glucose load” value ([2]; 9 0.1 or 1 mg/kg ip, oral 2 g/kg glucose) was “improved glucose handling”. For the same compound, the IC50 [10] was 80 µM, the “displacement of the specific binding” value [11] was “lower than 50%” and the “anxiety-like behavior in the elevated plus-maze” value [12] was “does not induce anxiety-like behavior; also recorded: did not result in the emergence of anxiety-like behaviors nor hypolocomotion”. For the same compound, the IC50 [13] was 4.13 µM, the “hERG inhibition (in words)” value [13] was “weak inhibitor of the hERG channel at micromolar concentrations” and the “Inhibition (%), Mean” value ([13]; 1 µM) was 29.7%. For the same compound, the “Inhibition (%), single values” ([13]; 1 µM) was 27.0% and 32.3%, the “Inhibition (%), Mean” value ([13]; 10 µM) was 62.3% and the “Inhibition (%), single values” ([13]; 10 µM) was 52.1% and 72.5%. For the same compound, the “Inhibition (%), Mean” value ([13]; 30 µM) was 80.5%, the “Inhibition (%), single values” ([13]; 30 µM) was 78.0% and 83.0% and the inhibition at 10 µM [14] was -4%. It also gave an inhibition at 10 µM [15] of 5%, an inhibition at 10 µM [16] of -3% and an inhibition at 10 µM [17] of 3%. It also gave an inhibition at 10 µM [18] of -3%, an inhibition at 10 µM [19] of 4% and an inhibition at 10 µM [20] of -20%. For the same compound, the inhibition at 10 µM [21] was -13%, the inhibition at 10 µM [22] was 0% and the inhibition at 10 µM [23] was 8%. The inhibition at 10 µM [24] was 19%, the inhibition at 10 µM [25] was -8% and the AUC(0-inf) at 24 h ([26]; IV 2 mg/kg, mean ± SD, N = 4) was 311 ± 12.9 ng·h/mL. For the same compound, the AUC(0-t) at 24 h ([26]; IV 2 mg/kg, mean ± SD, N = 4) was 278 ± 20 ng·h/mL, the C0 ([26]; IV 2 mg/kg, mean ± SD, N = 4) was 492 ± 81.9 ng/mL and the clearance at 24 h ([26]; IV 2 mg/kg, mean ± SD, N = 4) was 107 ± 4.58 mL/min/kg. The half-life at 24 h ([26]; IV 2 mg/kg, mean ± SD, N = 4) was 195 ± 61.8 min, the Vd at 24 h ([26]; IV 2 mg/kg, mean ± SD, N = 4, read-out: Vss) was 18.1 ± 6.62 L/kg and the bioavailability ([26]; PO 10 mg/kg vs IV 2 mg/kg) was 39%. For the same compound, the bioavailability at 24 h ([26]; PO 10 mg/kg vs IV 2 mg/kg) was 38.9 ± 9.52%, the AUC(0-inf) at 24 h ([26]; PO 10 mg/kg, mean ± SD, N = 4) was 644 ± 267 ng·h/mL and the AUC(0-t) at 24 h ([26]; PO 10 mg/kg, mean ± SD, N = 4) was 540 ± 132 ng·h/mL. For the same compound, the Cmax at 24 h ([26]; PO 10 mg/kg, mean ± SD, N = 4) was 185 ± 14.5 ng/mL, the Tmax at 24 h ([26]; PO 10 mg/kg, mean ± SD, N = 4) was 49.8 ± 17.4 min and the half-life at 24 h ([26]; PO 10 mg/kg, mean ± SD, N = 4) was 172 ± 113 min. The Tmax ([26]; oral route, 10 mg/kg, read-out: time of maximal concentration post-ingestion (converted)) was 50 min and the “potentiation of feeding inhibition induced by exendin-4 (in words)” value ([6]; 9 1 μg/kg icv) was “potentiates; also recorded: potentiate the feeding inhibition; also recorded: enhancing satiety induced by the GLP-1R agonist exendin-4”.
